# Columns and labels:
# [1] = tested on: Spring barley (Hordeum vulgare); experiment: Spring barley field trial 2010: emergence, height, yield; assay type: in vivo; details: for Barley Yield: entire plot harvested
# Method: A field trial was conducted to evaluate the effects of NPG on plant emergence, height, and yield in Spring barley (Hordeum vulgare) planted near Thorndale, Ontario, Canada, in 2010. Seed treatments included an Untreated Control, three concentrations of NPG, and three concentrations of a natural LCO. The natural LCO was provided by Dr. Don Smith (McGill University, Montreal, Canada) and prepared as described in Example 2. Aqueous solutions of NPG and LCO were applied at 10^−6 M, 10^−7 M and 10^−8M to barley seed using a spray nozzle and left to soak on a plastic sheet for 20 minutes. The seeds were beginning to emerge when they were planted on June 8th in a loam composed of 41% sand, 39% silt and 20% clay and 4.5% organic matter.
# Barley was planted at a rate of 100 kg seed/ha to a depth of 2.5 cm. Weeds were controlled using 770 mL/ha 8.79 wt % fenoxprop-P-ethyl, and a mixture of 33.33 wt % thifensulfuron methyl and 16.67 wt % tribenuron methyl at a rate of 30 g/ha. Disease was controlled with 23.6 wt % pyraclostrobin at a rate of 0.4 L/ha. All of the products are industry standards and representative of what is used in commercial production.
# The trial was conducted using a randomized complete block design with a plot size of 2 m by 8 m with a 17.8 cm row spacing, 3.3 cm plant spacing and four replications
# Yield was determined by harvesting the entire plot and transforming the data to kg/ha (Table 10). Yields are not corrected for differences in emergence rates. […] It is noteworthy, however, that yield benefits may be difficult to accurately determine with the small plots used in this study.
# [2] = tested on: AC Metcalf spring barley (Hordeum vulgare); experiment: Spring barley field trial 2011: emergence, vigor, tillering; assay type: in vivo; details: for Barley Crop Vigor (1-5 scale): vigor scale of Example 3; for Barley Plant Tillers: 24 DAP
# Method: A spring barley field trial was conducted to evaluate the effects of NPG on plant emergence and vigor in AC Metcalf spring barley (Hordeum vulgare) planted near Wetaskiwin, Alberta, Canada, in 2011. Seed treatments included an Untreated Control, 10^−7 M NPG seed coating, 10^−7 M NPG seed coating followed by an NPG foliar treatment (10^−7 M NPG+Foliar), 10^−6 M natural LCO, and 10^−6 M commercial LCO plus a commercial rhizobia inoculant (LCO+RI) applied as a seed coating. The natural LCO was provided by Dr. Don Smith (McGill University, Montreal, Canada) and prepared as described in Example 2.
# Seed coating was performed by injecting 7 mL of aqueous NPG solution per 100 g barley seed into the coating machine followed by treatment and drying. […] Foliar NPG was applied 47 days after planting. Plants were sprayed using a four-nozzle hollow-cone boom and CO2 propellant at a speed of 10.8 km/h and 40 psi, with a mix size of 1.0 L and spray rate of 110 L/ha water volume. Seeds designated for use as the Untreated Control also received the fungicide maintenance treatment.
# Treated seeds were sent to the DuPont Wetaskiwin, Alberta, Canada, Research Station and planted on May 19th in a loam composed of 29% sand, 46% silt and 25% clay and 4.8% organic matter. […] Barley was planted at a rate of 100 kg seeds/ha to a depth of 2.5 cm. Weeds were controlled using 60 grams ai/ha pinoxaden, 30 grams/ha thifensulfuron methyl, and 280 grams ai/ha 4-chloro-2-methylphenox acetic acid, 2-ethylhexyl ester. Adigor surfactant was used at a rate of 700 ml/hectare. All of the products used are considered industry standards and representative of what is used in commercial production.
# The trial was conducted using a randomized complete block design with a plot size of 2 m by 6 m with 22.9 cm row spacing, 3.3 cm plant spacing and four replications. Height and yield data was not collected in this trial due to a large hailstorm on Jul. 18, 2011.
# Crop vigor was observed 11 and 14 days DAP using the vigor scale described in Example 3 (Table 12).
# [3] = 10^−7M seed coating + Foliar, 11 DAP
# [4] = 10^−7M seed coating + Foliar, 14 DAP
structure (smiles),measurement,setting,value
"CCCCCCC=CCCCCCCCC(=O)NC1C(OC)OC(CO)C(O)C1O [NPG, Methyl 2-deoxy-2-N-(hexadece-9,10-cis-eneoyl)-β-D-glucopyranoside]",Barley Emergence,"[1]; 10^−6M seed treatment, 7 DAP",85a %
same,Barley Plant Height,"[1]; 10^−6M seed treatment, 7 DAP",5.8a cm
same,Barley Emergence,"[1]; 10^−6M seed treatment, 15 DAP",88ab %
same,Barley Plant Height,"[1]; 10^−6M seed treatment, 15 DAP",12ab cm
same,Barley Emergence,"[1]; 10^−6M seed treatment, 43 DAP",19a %
same,Barley Plant Height,"[1]; 10^−6M seed treatment, 43 DAP",71a cm
same,Barley Yield,[1]; 10^−6M seed treatment,3184 Kg/Hectare
same,Barley Emergence,"[1]; 10^−7M seed treatment, 7 DAP",86a %
same,Barley Plant Height,"[1]; 10^−7M seed treatment, 7 DAP",5.5ab cm
same,Barley Emergence,"[1]; 10^−7M seed treatment, 15 DAP",91a %
same,Barley Plant Height,"[1]; 10^−7M seed treatment, 15 DAP",14a cm
same,Barley Emergence,"[1]; 10^−7M seed treatment, 43 DAP",30a %
same,Barley Plant Height,"[1]; 10^−7M seed treatment, 43 DAP",71a cm
same,Barley Yield,[1]; 10^−7M seed treatment,2504 Kg/Hectare
same,Barley Emergence,"[1]; 10^−8M seed treatment, 7 DAP",83a %
same,Barley Plant Height,"[1]; 10^−8M seed treatment, 7 DAP",5.6a cm
same,Barley Emergence,"[1]; 10^−8M seed treatment, 15 DAP",86ab %
same,Barley Plant Height,"[1]; 10^−8M seed treatment, 15 DAP",13a cm
same,Barley Emergence,"[1]; 10^−8M seed treatment, 43 DAP",25a %
same,Barley Plant Height,"[1]; 10^−8M seed treatment, 43 DAP",72a cm
same,Barley Yield,[1]; 10^−8M seed treatment,3043 Kg/Hectare
same,Barley Crop Emergence,[2]; [3],25a plants/m row
same,Barley Crop Vigor (1-5 scale),[2]; [3],3a
same,Barley Crop Emergence,[2]; [4],31.8a plants/m row
same,Barley Crop Vigor (1-5 scale),[2]; [4],4a
same,Barley Plant Tillers,[2]; 10^−7M seed coating + Foliar,95a %
same,Barley Crop Emergence,"[2]; 10^−7M seed coating, 11 DAP",22.5a plants/m row
same,Barley Crop Vigor (1-5 scale),"[2]; 10^−7M seed coating, 11 DAP",3a
same,Barley Crop Emergence,"[2]; 10^−7M seed coating, 14 DAP",27.4a plants/m row
same,Barley Crop Vigor (1-5 scale),"[2]; 10^−7M seed coating, 14 DAP",4a
same,Barley Plant Tillers,[2]; 10^−7M seed coating,83a %
